These results are taken from ChEMBL document CHEMBL3616469, “Synthesis, electronic properties, antioxidant and antibacterial activity of some new benzimidazoles” (Bioorg Med Chem, 2015).

Data set [1] is described as follows: Antioxidant activity assessed as inhibition of AAPH-induced lipid peroxidation at 200 ug/ml after 3 hrs by TBA-MDA test. Type of data set: physicochemical.
The nature of data set [2]: Antioxidant activity assessed as inhibition of AAPH-induced lipid peroxidation after 3 hrs by TBA-MDA test. It counts as physicochemical.
A further data set relates to Bacillus spizizenii. The data set is described as follows: Antibacterial activity against Bacillus subtilis ATCC 6633 by broth microdilution method. Type of data set: functional. A general note: Dilution methods test growth across graded concentrations, often in twofold steps.
The test system of the next data set is Staphylococcus aureus. Nature of the data set: Antibacterial activity against Staphylococcus aureus ATCC 6538 by broth microdilution method. Type of data set: functional.
For data set [3], the system named is Salmonella enterica subsp. enterica serovar Abony. The data set is described as follows: Antibacterial activity against Salmonella abony NCTC 6017 by broth microdilution method. It counts as functional.
For a further data set, the system named is Escherichia coli. Nature of the data set: Antibacterial activity against Escherichia coli ATCC 8739 by broth microdilution method. It counts as functional.
A further data set has as its system Pseudomonas aeruginosa. Nature of the data set: Antibacterial activity against Pseudomonas aeruginosa ATCC 9027 by broth microdilution method. It counts as functional.

A word on the IC50: it is the midpoint of a concentration-inhibition curve. One may read the MIC as the lowest concentration found to suppress growth.

≈ marks a conversion by molar mass, not a printed value. Calls of active or inactive are those of the source. The rule behind the calls is not given here.

Take `COc1ccccc1/C=c1\sc2nc3cc(C(=O)c4ccccc4)ccc3n2c1=O`: in data set [1], the “inhibition (INH)” value is reported as 80.35%. Further, the IC50 in data set [2] worked out at 74.11 µg/mL (≈ 180 µM).
For `O=c1c(O)c(-c2ccc(O)c(O)c2)oc2cc(O)cc(O)c12` [QUERCETIN], in that order: 91.12% and 10.47 µg/mL (≈ 34.6 µM).
`Cc1ccc2c(c1)n(CC(=O)c1ccccc1)c(=N)n2CC(=O)c1ccccc1`: the MIC against Bacillus spizizenii and in the data set with Staphylococcus aureus was 500 µg/mL (≈ 1300 µM) each time. Moreover, the MIC entry (in data set [3]; in the data set on Escherichia coli; in the data set with Pseudomonas aeruginosa) was “inactive” throughout. Further, in data set [1], the “inhibition (INH)” value turned out to be 39.26%. The IC50 in data set [2] is over 200 µg/mL.
In the case of `O=C1O[C@H]([C@@H](O)CO)C(O)=C1O` [ASCORBIC ACID], in data set [1], the “inhibition (INH)” value is on record as 99.9%. Besides, the 50% inhibitory concentration (IC50) in data set [2] was 9.12 µg/mL (≈ 51.8 µM).
For `O=C(c1ccccc1)c1ccc2c(c1)nc1s/c(=C\c3ccc4c(c3)OCO4)c(=O)n12`, in that order: 60.8% and 85.51 µg/mL (≈ 201 µM).
The like results for `O=C(c1ccccc1)c1ccc2c(c1)nc1s/c(=C\c3ccc(F)cc3)c(=O)n12` were, in that order, 90.76% and 53.7 µg/mL (≈ 134 µM).
For the compound `C[C@H]1c2cccc(O)c2C(=O)C2=C(O)[C@]3(O)C(=O)C(C(N)=O)=C(O)[C@@H](N(C)C)[C@@H]3[C@@H](O)[C@@H]21.O` [DOXYCYCLINE], the minimum inhibitory concentration (MIC) in the data set with Bacillus spizizenii was 1.56 µg/mL; in the data set on Staphylococcus aureus, 0.78 µg/mL; in data set [3], 6.25 µg/mL; in the data set on Escherichia coli, 0.78 µg/mL; against Pseudomonas aeruginosa it was 12.5 µg/mL.
On to `O=C(O)/C=C/c1ccc(O)c(O)c1` [CAFFEIC ACID], for which the “inhibition (INH)” value in data set [1] was 99.98%. For the same compound, the IC50 in data set [2] is 3.79 µg/mL (≈ 21 µM).
The like results for `Cc1c(C)c2c(c(C)c1O)CCC(C)(C(=O)O)O2` (stereo unspecified) [TROLOX] were, in that order, 85.61% and 7.74 µg/mL (≈ 30.9 µM).
For the compound `Cc1ccc2c(c1)n(CCCc1ccccc1)c(=N)n2CCCc1ccccc1`, the MIC in the data set on Bacillus spizizenii was found to be 125 µg/mL (≈ 326 µM); with Staphylococcus aureus, 16 µg/mL (≈ 41.7 µM); in data set [3] it was 500 µg/mL (≈ 1300 µM); against Escherichia coli it was 500 µg/mL (≈ 1300 µM). Moreover, the MIC entry in the data set with Pseudomonas aeruginosa is “inactive”. Further, the “inhibition (INH)” value in data set [1] was determined as 62.15%. Moreover, the IC50 in data set [2] was determined as 144.88 µg/mL (≈ 378 µM).
In the case of `CCOC(=O)Cn1c(=N)n(CC(=O)OCC)c2cc(C(=O)c3ccccc3)ccc21`, the MIC result (with Bacillus spizizenii; in the data set with Staphylococcus aureus; in data set [3]; in the data set with Escherichia coli; in the data set on Pseudomonas aeruginosa) was “inactive” each time. The “inhibition (INH)” value in data set [1] turned out to be 74.04%. For the same compound, in data set [2], the IC50 amounted to 141.89 µg/mL (≈ 347 µM).
Consider `CCOC(=O)Cn1c(=N)n(CC(=O)OCC)c2cc(C)ccc21`, for which the MIC entry (in the data set with Bacillus spizizenii; in the data set on Staphylococcus aureus; in data set [3]; in the data set with Escherichia coli; in the data set with Pseudomonas aeruginosa) was “inactive” in each case. Besides, the “inhibition (INH)” value in data set [1] came to 55.87%. Besides, the IC50 in data set [2] came out at 176.58 µg/mL (≈ 553 µM).
For the compound `O=C(c1ccccc1)c1ccc2c(c1)nc1s/c(=C\c3ccccc3F)c(=O)n12`, in data set [1], the “inhibition (INH)” value is 75.76%. Also, the IC50 in data set [2] was 86.97 µg/mL (≈ 217 µM).
In the data set with Bacillus spizizenii, `N=c1n(CC(=O)c2ccccc2)c2ccc([N+](=O)[O-])cc2n1CC(=O)c1ccccc1` had an MIC of 1000 µg/mL (≈ 2410 µM). The MIC entry (with Staphylococcus aureus; in data set [3]; in the data set on Escherichia coli; in the data set with Pseudomonas aeruginosa) was “inactive” each time. Further, the “inhibition (INH)” value in data set [1] worked out at 23.43%. For the same compound, the IC50 in data set [2] is over 200 µg/mL.
